PubChem BioAssay AID743348 (Broad Institute, 2014)
Calls of active or inactive are those of the source.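 How the source made its calls: active means AC50 for ATP loss at or below twice the top valid dose tested, with the signal falling; inconclusive means flat fit showing moderate loss, or a poor-quality fit; inactive means the rest, including rises in signal.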

Assays:
[1] = test system: HepG2 viability, CellTiter-Glo ATP luminescence, 72 h; experiment: HepG2 cytotoxicity, dose response, cytotoxicity control, cell-based, ATP luminescence, dry powder, set 10 (AID 743348)
[2] = as above; settings: HepG2 viability, CellTiter-Glo ATP luminescence, 72 h; at 26 µM (top of the series)

CC(=O)c1ccc(N2CCN(S(=O)(=O)c3ccc4c(c3)OCO4)CC2)cc1
AC50 [1]: > 52 µM (inactive)

CS(=O)(=O)c1ccc(N2CCN(C(=O)c3ccc4c(c3)OCO4)CC2)cc1
activity change, negative = cytotoxicity [2]: -7.24% (inactive)

CC(=O)c1ccc(N2CCCN(C(=O)c3ccc4c(c3)OCO4)CC2)cc1
activity change, negative = cytotoxicity [2]: 11.7% (inactive)

N#Cc1ccc(N2CCN(C(=O)c3ccc4c(c3)OCO4)CC2)cc1
activity change, negative = cytotoxicity [2]: -5.11% (inactive)

CC(=O)c1ccc(N2CCN(C(=O)c3cccc4c3OCO4)CC2)cc1
activity change, negative = cytotoxicity [2]: 14.1% (inactive)

CC(=O)c1ccc(N2CC3CC2CN3C(=O)c2ccc3c(c2)OCO3)cc1 (stereo not given)
activity change, negative = cytotoxicity [2]: 36.6% (inactive)

COc1ccc(C(=O)N2CCN(c3ccc(C(C)=O)cc3)CC2)cc1OC
activity change, negative = cytotoxicity [2]: 9.73% (inactive)

CC(=O)c1ccc(N2CCN(C(=O)c3ccc4c(c3)OCO4)CC2)cc1
activity change, negative = cytotoxicity [2]: -3.33% (inactive)

CC(=O)c1ccc(N2CCN(C(=O)c3ccc(Cl)c(Cl)c3)CC2)cc1
activity change, negative = cytotoxicity [2]: 55.4% (inactive)

CC(=O)c1ccc(N2CCN(C(=O)c3ccc4snnc4c3)CC2)cc1
activity change, negative = cytotoxicity [2]: 19.1% (inactive)

CC(=O)c1ccc(N2CCN(C(=O)c3cc(Cl)c4c(c3)OCO4)CC2)cc1
activity change, negative = cytotoxicity [2]: 6.73% (inactive)

CC(=O)c1ccc(N2CCN(C(=O)c3cc4c(cc3Cl)OCO4)CC2)cc1
activity change, negative = cytotoxicity [2]: 28.5% (inactive)

O=C(c1ccc2c(c1)OCO2)N1CCN(c2ccc(OC(F)(F)F)cc2)CC1
activity change, negative = cytotoxicity [2]: -0.808% (inactive)

COc1cc(C(=O)N2CCN(c3ccc(C(C)=O)cc3)CC2)cc2c1OCO2
activity change, negative = cytotoxicity [2]: 12% (inactive)

O=C(c1ccc2c(c1)OCO2)N1CCN(c2ccc(S(=O)(=O)C(F)F)cc2)CC1
activity change, negative = cytotoxicity [2]: 27.7% (inactive)

CC(=O)c1ccc(N2CCN(C(=O)c3ccc4ocnc4c3)CC2)cc1
activity change, negative = cytotoxicity [2]: 10.9% (inactive)

CC(=O)c1ccc(N2CCN(C(=O)c3ccc4c(c3)OC(F)(F)O4)CC2)cc1
activity change, negative = cytotoxicity [2]: 14.2% (inactive)

CC(=O)c1ccc(N2CCN(C(=O)c3ccc4c(c3)OC(C)(C)O4)CC2)cc1
activity change, negative = cytotoxicity [2]: -6.05% (inactive)

COc1cc2c(cc1C(=O)N1CCN(c3ccc(C(C)=O)cc3)CC1)OCO2
activity change, negative = cytotoxicity [2]: 7.72% (inactive)

CC(=O)c1ccc(N2CCN(C(=O)c3cc4c(cn3)OCO4)CC2)cc1
activity change, negative = cytotoxicity [2]: -2.87% (inactive)

CC(=O)c1ccc(N2CCN(C(=O)c3cc4c(cc3C)OCO4)CC2)cc1
activity change, negative = cytotoxicity [2]: 31.1% (inactive)

O=C(c1ccc2c(c1)OCO2)N1CCN(c2ccc(S(=O)(=O)C(F)(F)F)cc2)CC1
activity change, negative = cytotoxicity [2]: 24.8% (inactive)

CC(=O)c1ccc(N2CCN(C(=O)Nc3ccc4c(c3)OCO4)CC2)cc1
activity change, negative = cytotoxicity [2]: -12% (inactive)

O=C(c1ccc2c(c1)OCO2)N1CCN(c2ccc(C(F)(F)F)cc2)CC1
activity change, negative = cytotoxicity [2]: 7.07% (inactive)

CC(=O)c1ccc(N2CCN(C(=O)c3ccc4c(c3C)OCO4)CC2)cc1
activity change, negative = cytotoxicity [2]: 0.898% (inactive)
